# Reference: patent US9877957B2, “Tetrahydroisoquinoline derivatives useful as inhibitors of diacylglyceride O-acyltransferase 2” (Merck Sharp & Dohme Corp., priority 2014, dated 2018)
# Target: hDGAT2 (Homo sapiens (Human), UniProt Q96PD7)
# Test: DGAT2 Enzymatic Activity Assay (triolein formation, LC/MS/MS)
# Assay type: biochemical
# Details: Sf-9 membrane prep expressing hDGAT2; 25 μM diolein, 10 μM oleoyl-CoA; room temperature; read-out: IC50 values for inhibition of DGAT2
# Description: In Vitro DGAT2 ASSAYS and Determination of IC50 Values for DGAT2 Inhibitors
# Insect Cell Expression and Membrane Preparation
# Sf-9 insect cells were maintained in Grace's insect cell culture medium with 10% heated-inactivated fetal bovine serum, 1% Pluronic F-68 and 0.14 μg/ml Kanamycine sulfate in Erlenmeyer flasks at 28° C. in a shaker incubator. After infection with untagged hDGAT2 baculovirus at multiplicity of infection (MOI) 0.1 for 48 hours, cells were harvested. Cell pellets were suspended in buffer containing 10 mM Tris-HCl (pH 7.5), 1 mM EDTA (pH 8.0), 250 mM sucrose and Complete Protease Inhibitor Cocktail (Roche Diagnostics Corp., Indianapolis, Ill.), and sonicated on ice. Membrane fractions were isolated by ultracentrifugation (100,000× g pellet), resuspended in the same buffer, and frozen (−80° C.) for later use. The protein concentration was determined with the BCA Protein Assay kit (Pierce Biotechnology Inc., Rockford, Ill.). Expression of protein levels was analyzed by immunoblotting with goat polyclonal DGAT2 antibody C-15 and donkey anti-goat IgG HRP (Santa Cruz Biotechnology, Inc., Santa Cruz, Calif.) followed by detection with ECL reagent (GE Healthcare, Piscataway, N.J.).
# LC/MS/MS analyses were performed using Thermal Fisher's LX4-TSQ Vantage system. This system consists of an Agilent binary high-performance liquid chromatography (HPLC) pumps and a TSQ Vantage triple quadrupole MS/MS instrument. For each sample, 2 μL samples from the top organic layer of in-plate liquid-liquid extraction were injected onto a Thermo Betabasic C4 column (2.1 mm×20 mm, 5 μm particle size). The samples were then eluted using the following conditions; mobile phase: methanol/water with 0.1% ammonium format=92/8 (v/v), flow rate: 1 mL/min, temperature: 25° C. Data was acquired in positive mode using a heated electrospray ionization (HESI) interface. The operational parameters for the TSQ Vantage MS/MS instrument were a spray voltage of 3000 V, capillary temperature of 280° C., vaporizer temperature 400° C., shealth gas 60 arbitrary unit, Aux gas 40 arbitrary units, S-lens 113 and collision gas 0.16 Pascals. […] (SRM) chromatograms of triolein (Q1: 902.9>Q3:602.3) and internal standard (Q1: 902.9>Q3:602.3) were collected for 40 sec. The peak area was integrated by Xcalibur Quan software. The ratio between the triolein generated in the reaction and spiked in internal standard were used to generate percentage inhibition and IC50 values. Compound percentage inhibition was calculated by the following formula: Inhibition %=1−[(compound response−low control)/(high control−low control)]×100%. Potent compounds were titrated and IC50 were calculated by 4 parameter sigmoidal curve fitting formula.
# DGAT2 Enzymatic Activity Assay
# DGAT2 activity was determined by measuring the amount of enzymatic product triolein (1,2,3-Tri(cis-9-octadecenoyl)glycerol) using the membrane prep mentioned above. The assay was carried out in deep well 384 plates in a final volume of 40 μL at room temperature. The assay mixture contained the following: assay buffer (100 mM Tris·Cl, pH 7.0, 20 mM MgCl2, 5% ethanol), 25 μM of diolein, 10 μM of oleoyl-CoA and 10 ng/μL of DGAT2 membrane.
# hDGAT2, sequence (Q96PD7 whole entry): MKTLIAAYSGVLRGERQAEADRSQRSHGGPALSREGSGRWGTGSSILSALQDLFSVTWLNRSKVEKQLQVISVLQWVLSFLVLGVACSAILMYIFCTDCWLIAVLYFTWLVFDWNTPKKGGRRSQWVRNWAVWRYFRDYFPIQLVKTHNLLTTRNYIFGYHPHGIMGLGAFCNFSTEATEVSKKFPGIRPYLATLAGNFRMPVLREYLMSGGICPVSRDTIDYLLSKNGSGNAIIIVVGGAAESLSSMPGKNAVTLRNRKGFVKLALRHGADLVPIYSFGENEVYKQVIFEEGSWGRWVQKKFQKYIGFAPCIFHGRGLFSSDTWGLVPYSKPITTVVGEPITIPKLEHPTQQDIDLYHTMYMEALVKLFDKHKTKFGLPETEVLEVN
row,Compound,IC50 [nM]
1,"CC(C)(C)NC(=O)N1CCc2c(-c3cccc(C(F)(F)F)c3)ccc(C(=O)NCc3scnc3-c3ccccc3)c2C1 [Example 39, N^2-(tert-butyl)-N^8-((4-phenylthiazol-5-yl)methyl)-5-(3-(trifluoromethyl)phenyl)-3,4-dihydroisoquinoline-2,8(1H)-dicarboxamide]",890
2,"CC(C)(C)NC(=O)N1CCc2c(-c3cccc(C(F)(F)F)c3)ccc(C(=O)NCCc3ccc(C(F)(F)F)cc3)c2C1 [Example 52, N^2-(tert-butyl)-N^8-(4-(trifluoromethyl)phenethyl)-5-(3-(trifluoromethyl)phenyl)-3,4-dihydroisoquinoline-2,8(1H)-dicarboxamide]",2420
3,"CC(C)(C)NC(=O)N1CCc2c(-c3cccc(C(F)(F)F)c3)ccc(C(=O)NCc3nccc4ccccc34)c2C1 [Example 19, N^2-(tert-butyl)-N^8-(isoquinolin-1-ylmethyl)-5-(3-(trifluoromethyl)phenyl)-3,4-dihydroisoquinoline-2,8(1H)-dicarboxamide]",197
4,"Cc1nccn1CCNC(=O)c1ccc(-c2cccc(C(F)(F)F)c2)c2c1CN(C(=O)NC(C)(C)C)CC2 [Example 56, N^2-(tert-butyl)-N^8-(2-(2-methyl-1H-imidazol-1-yl)ethyl)-5-(3-(trifluoromethyl)phenyl)-3,4-dihydroisoquinoline-2,8(1H)-dicarboxamide]",7950
5,"CC(C)(C)NC(=O)N1CCc2c(-c3cccc(C(F)(F)F)c3)ccc(C(=O)NCCc3cn4ccccc4n3)c2C1 [Example 23, N^2-(tert-butyl)-N^8-(2-(imidazo[1,2-a]pyridin-2-yl)ethyl)-5-(3-(trifluoromethyl)phenyl)-3,4-dihydroisoquinoline-2,8(1H)-dicarboxamide]",244
6,"Cn1ccnc1CNC(=O)c1ccc(-c2cccc(C(F)(F)F)c2)c2c1CN(C(=O)NC(C)(C)C)CC2 [Example 68, N^2-(tert-butyl)-N^8-((1-methyl-1H-imidazol-2-yl)methyl)-5-(3-(trifluoromethyl)phenyl)-3,4-dihydroisoquinoline-2,8(1H)-dicarboxamide]",474
7,"Cc1nn2cc(CCNC(=O)c3ccc(-c4cccc(C(F)(F)F)c4)c4c3CN(C(=O)NC(C)(C)C)CC4)nc2s1 [Example 25, N^2-(tert-butyl)-N^8-(2-(2-methylimidazo[2,1-b][1,3,4]thiadiazol-6-yl)ethyl)-5-(3-(trifluoromethyl)phenyl)-3,4-dihydroisoquinoline-2,8(1H)-dicarboxamide]",271
8,"CC(C)(C)NC(=O)N1CCc2c(-c3cccc(C(F)(F)F)c3)ccc(C(=O)NCC(c3ccccn3)N3CCOCC3)c2C1 (stereo not shown) [Example 36, N^2-(tert-butyl)-N^8-(2-morpholino-2-(pyridin-2-yl)ethyl)-5-(3-(trifluoromethyl)phenyl)-3,4-dihydroisoquinoline-2,8(1H)-dicarboxamide]",737
9,"Cc1noc(C)c1CCNC(=O)c1ccc(-c2cccc(C(F)(F)F)c2)c2c1CN(C(=O)NC(C)(C)C)CC2 [Example 50, N^2-(tert-butyl)-N^8-(2-(3,5-dimethylisoxazol-4-yl)ethyl)-5-(3-(trifluoromethyl)phenyl)-3,4-dihydroisoquinoline-2,8(1H)-dicarboxamide]",1970
10,"CC(NC(=O)c1ccc(-c2cccc(C(F)(F)F)c2)c2c1CN(C(=O)NC(C)(C)C)CC2)c1nnc[nH]1 (stereo not shown) [Example 62, N^8-(1-(4H-1,2,4-triazol-3-yl)ethyl)-N^2-(tert-butyl)-5-(3-(trifluoromethyl)phenyl)-3,4-dihydroisoquinoline-2,8(1H)-dicarboxamide]",3840
11,"CC(C)(C)NC(=O)N1CCc2c(-c3cccc(C(F)(F)F)c3)ccc(C(=O)NCCn3nncc3-c3ccccc3)c2C1 [Example 37, N^2-(tert-butyl)-N^8-(2-(5-phenyl-1H-1,2,3-triazol-1-yl)ethyl)-5-(3-(trifluoromethyl)phenyl)-3,4-dihydroisoquinoline-2,8(1H)-dicarboxamide]",739
12,"CC(C)(C)NC(=O)N1CCc2c(-c3cccc(OC(F)(F)F)c3)ccc(C(=O)NCc3nnc4n3CCC4)c2C1 [Example 75, N^2-(tert-butyl)-N^8-((6,7-dihydro-5H-pyrrolo[2,1-c][1,2,4]triazol-3-yl)methyl)-5-(3-(trifluoromethoxy)phenyl)-3,4-dihydroisoquinoline-2,8(1H)-dicarboxamide]",2490
13,"CC(C)(C)NC(=O)N1CCc2c(-c3cccc(C(F)(F)F)c3)ccc(C(=O)NCc3conc3C#N)c2C1 [Example 27, N^2-(tert-butyl)-N^8-((3-cyanoisoxazol-4-yl)methyl)-5-(3-(trifluoromethyl)phenyl)-3,4-dihydroisoquinoline-2,8(1H)-dicarboxamide]",314
14,"Cc1cc(C(F)(F)F)nc(CCNC(=O)c2ccc(-c3cccc(C(F)(F)F)c3)c3c2CN(C(=O)NC(C)(C)C)CC3)n1 [Example 38, N^2-(tert-butyl)-N^8-(2-(4-methyl-6-(trifluoromethyl)pyrimidin-2-yl)ethyl)-5-(3-(trifluoromethyl)phenyl)-3,4-dihydroisoquinoline-2,8(1H)-dicarboxamide]",854
15,"Cn1c(CCNC(=O)c2ccc(-c3cccc(C(F)(F)F)c3)c3c2CN(C(=O)NC(C)(C)C)CC3)nc2ccccc21 [Example 20, N^2-(tert-butyl)-N^8-(2-(1-methyl-1H-benzo[d]imidazol-2-yl)ethyl)-5-(3-(trifluoromethyl)phenyl)-3,4-dihydroisoquinoline-2,8(1H)-dicarboxamide]",205

# These reach a lower IC50. Values come first.
row,IC50 [nM],Compound
1,67.6,CC(C)(C)NC(=O)N1CCc2c(-c3cccc(C(F)(F)F)c3)ccc(C(=O)NCc3cccc4cccnc34)c2C1 [Example 11]
2,17,"COC(=O)c1cccc(-c2ccc(CNC(=O)c3cc(C(C)(C)C)nn3C)c3c2CCN(C(=O)NC(C)(C)C)C3)c1 [Example 3, methyl 3-(8-((3-(tert-butyl)-1-methyl-1H-pyrazole-5-carboxamido)methyl)-2-(tert-butylcarbamoyl)-1,2,3,4-tetrahydroisoquinolin-5-yl)benzoate]"
3,135,"COc1cccc(-c2ccc(CNC(=O)c3nccc4ccccc34)c3c2CCN(C(=O)NC(C)(C)C)C3)c1 [Example 5, N-((2-(tert-butylcarbamoyl)-5-(3-methoxyphenyl)-1,2,3,4-tetrahydroisoquinolin-8-yl)methyl)isoquinoline-1-carboxamide]"
4,133,"CC(C)(C)NC(=O)N1CCc2c(-c3cccc(C(F)(F)F)c3)ccc(C(=O)NCCc3cn4ccsc4n3)c2C1 [Example 18, N^2-(tert-butyl)-N^8-(2-(imidazo[2,1-b]thiazol-6-yl)ethyl)-5-(3-(trifluoromethyl)phenyl)-3,4-dihydroisoquinoline-2,8(1H)-dicarboxamide]"
5,1.75,"COC(=O)c1cccc(-c2ccc(CNC(=O)C3CCN(c4ccc(C(F)(F)F)cc4)CC3)c3c2CCN(C(=O)NC(C)(C)C)C3)c1 [Example 1, methyl 3-(2-(tert-butylcarbamoyl)-8-((1-(4-(trifluoromethyl)phenyl)piperidine-4-carboxamido)methyl)-1,2,3,4-tetrahydroisoquinolin-5-yl)benzoate]"
6,68.6,"CC(C)(C)NC(=O)N1CCc2c(-c3cccc(C(F)(F)F)c3)ccc(C(=O)NCc3cccc4cnccc34)c2C1 [Example 12, N^2-(tert-butyl)-N^8-(isoquinolin-5-ylmethyl)-5-(3-(trifluoromethyl)phenyl)-3,4-dihydroisoquinoline-2,8(1H)-dicarboxamide]"
7,82.9,"COc1ccc2nc(CCNC(=O)c3ccc(-c4cccc(C(F)(F)F)c4)c4c3CN(C(=O)NCC(F)(F)F)CC4)[nH]c2c1 [Example 59, N^8-(2-(6-methoxy-1H-benzo[d]imidazol-2-yl)ethyl)-N^2-(2,2,2-trifluoroethyl)-5-(3-(trifluoromethyl)phenyl)-3,4-dihydroisoquinoline-2,8(1H)-dicarboxamide]"
